Test system: CEBPB expression in LPS-stimulated THP-1 cells
Experiment: Nascent RNA sequencing of LPS-stimulated THP-1 cells (CEBPB expression)
Format: cell-based
Conditions: 10 ng/mL LPS and 250 μM 2′FL
Procedure: THP-1 Cells were treated with 10 ng/mL LPS or 10 ng/mL LPS and 250 μM 2′FL and extracted for nascent RNAs at 30 min and 24 hours. The nascent RNAs were sequenced and analyzed as described in Azofeifa et al. (2018), Genome Res. 28: 334-344; the contents of which are expressly incorporated by reference herein.

## CC1O[C@@H](OC2[C@H](O[C@H]3C(O)C(O)C(O)O[C@H]3CO)OC(CO)[C@H](O)[C@@H]2O)C(O)[C@@H](O)[C@@H]1O (stereo partly drawn) [2′FL, 2′-fucosyllactose]
30 min
  CEBPB maximum enrichment score (nascent RNAs, 2′FL+LPS versus LPS alone): 40
24 hours
  CEBPB maximum enrichment score (nascent RNAs, 2′FL+LPS versus LPS alone): 20
Both the 30 min and 24 hour time points
  CEBPB expression (nascent RNAs, 2′FL+LPS versus LPS alone): enhanced and upregulated

Source: US20240165137A1, “METHODS FOR IMPROVING MUSCLE STRENGTH AND MOBILITY” (Intrinsic Medicine, Inc., priority 2020, published 2024)
